For assay [1], the target named is human serum acetylcholinesterase (Homo sapiens, UniProt P22303). Briefly: biochemical.
Another assay concerns AChE. Conditions: at 200 μM; cited from earlier work.
Another assay has as its system BChE. To be noted: at 200 μM; cited from earlier work.

These results are taken from paper PMC9811652 (RSC Advances, 2023).

Sequence of human serum acetylcholinesterase (P22303 32-574 limits assumed): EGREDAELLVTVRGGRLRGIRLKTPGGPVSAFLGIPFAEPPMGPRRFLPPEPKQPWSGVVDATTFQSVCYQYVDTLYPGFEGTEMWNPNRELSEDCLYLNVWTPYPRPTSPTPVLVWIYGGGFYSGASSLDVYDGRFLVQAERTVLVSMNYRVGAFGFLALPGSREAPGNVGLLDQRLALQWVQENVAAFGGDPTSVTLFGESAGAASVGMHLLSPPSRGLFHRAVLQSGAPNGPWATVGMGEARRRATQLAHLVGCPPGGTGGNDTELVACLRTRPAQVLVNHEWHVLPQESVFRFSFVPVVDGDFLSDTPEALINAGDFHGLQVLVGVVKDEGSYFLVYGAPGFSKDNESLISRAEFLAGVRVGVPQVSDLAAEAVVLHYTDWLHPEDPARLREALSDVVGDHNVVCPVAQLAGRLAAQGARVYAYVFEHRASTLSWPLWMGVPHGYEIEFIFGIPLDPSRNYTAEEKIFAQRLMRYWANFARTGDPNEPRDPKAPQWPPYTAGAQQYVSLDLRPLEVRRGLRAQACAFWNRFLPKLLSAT

`COc1c(OC)c(OC)c2c(-c3ccccc3)c(-c3ccccc3)[nH]c2c1CNc1ccccc1` [indole amine 23, 4,5,6-Trimethoxy-2,3-diphenyl-7-phenylaminomethyl-(1H)-indole] yielded an IC50 in assay [1] of 12.1 µM.

In the case of `COc1c(OC)c(OC)c2c(-c3ccccc3)c(-c3ccccc3)[nH]c2c1CNc1ccc([N+](=O)[O-])cc1` [indole amine 25, 4,5,6-Trimethoxy-7-(4′-nitrophenylaminomethyl)-2,3-diphenyl-(1H)-indole], half-maximal inhibition in assay [1] (IC50) required 4.28 µM.

The compound `COc1c(OC)c(OC)c2c(-c3ccccc3)c(-c3ccccc3)[nH]c2c1CNc1cccc([N+](=O)[O-])c1` [indole amine 24, 4,5,6-Trimethoxy-7-(3′-nitrophenylaminomethyl)-2,3-diphenyl-(1H)-indole] gave an IC50 in assay [1] of 4.66 µM.

For `COc1ccc2c3c1O[C@H]1C[C@@H](O)C=C[C@@]31CCN(C)C2` [Galantamine], the “percentage inhibition, AChE” value with AChE is listed as 78.76 ± 0.94%. Also, the “percentage inhibition, BChE” value in the assay on BChE is 79.72 ± 0.33%.

By IC50 is commonly meant the concentration that inhibits the measured activity by half. High values mean a need for much substance, low ones inhibition by little substance.
